Source: DBAASP
In brackets after ≈: the same amount, converted by molar mass. Several values for one entry are separate records, joined by “and”; a condition that tells them apart may be missing. Identical values can stand only once. One block for each compound: values may come before it.

How the values were obtained:
Experiment in all cases: ≥ marks a high value that may be exact or a test limit, other limits are often not marked, values filed in µg/mL are converted to µM
[1] = system: Staphylococcus aureus NCTC 8325
[2] = system: Escherichia coli ATCC 25922
Bacillus subtilis = system: Bacillus subtilis
[3] = system: Candida albicans ATCC 2002
[4] = system: Staphylococcus aureus ATCC 2592
[5] = system: Salmonella enterica subsp. enterica serovar Typhimurium C77-31
Escherichia coli UB1005 = system: Escherichia coli UB1005
[6] = system: Staphylococcus aureus ATCC 25923
[7] = system: Staphylococcus aureus ATCC 29213
[8] = system: Staphylococcus epidermidis ATCC 12228
[9] = system: Candida albicans ATCC 90028
[10] = system: Enterococcus faecalis ATCC 29212
[11] = system: Pseudomonas aeruginosa ATCC 27853
[12] = system: Salmonella enterica subsp. enterica serovar Typhimurium ATCC 14028
[13] = system: Escherichia coli DH5alpha
[14] = system: Klebsiella pneumoniae ATCC 13883

SMILES: CC[C@H](C)[C@H](NC(=O)[C@@H](NC(=O)[C@@H]1CCCN1C(=O)[C@H](CC(C)C)NC(=O)[C@@H](NC(=O)[C@@H](N)CO)[C@@H](C)CC)[C@@H](C)O)C(=O)N[C@H](C(=O)N[C@@H](CO)C(=O)N[C@@H](Cc1ccccc1)C(=O)N[C@@H](CC(C)C)C(=O)N[C@@H](CO)C(=O)N[C@@H](CCCCN)C(=O)N[C@@H](Cc1ccccc1)C(=O)N[C@@H](CC(C)C)C(N)=O)C(C)C [SILPTIVSFLSKFL]
- MIC [1]: 24 µM (≈ 37.5 µg/mL)

SMILES: CC[C@H](C)[C@H](NC(=O)CNC(=O)[C@H](CCC(N)=O)NC(=O)[C@H](Cc1ccccc1)NC(=O)[C@@H](NC(=O)[C@H](CCCCN)NC(=O)[C@H](CCCCN)NC(=O)[C@H](CC(C)C)NC(=O)[C@H](C)NC(=O)[C@H](CC(N)=O)NC(=O)[C@H](CC(C)C)NC(=O)CN)C(C)C)C(=O)N[C@@H](Cc1cnc[nH]1)C(=O)N[C@@H](CCC(=O)O)C(=O)N[C@@H](C)C(=O)N[C@H](C(=O)N[C@@H](CCCCN)C(=O)N[C@@H](CC(C)C)C(=O)N[C@H](C(=O)N[C@@H](CC(N)=O)C(=O)N[C@@H](CC(N)=O)C(=O)N[C@@H](Cc1cnc[nH]1)C(=O)N[C@H](C(=O)N[C@@H](CCCCN)C(=O)O)C(C)C)[C@@H](C)CC)[C@@H](C)CC [GLNALKKVFQGIHEAIKLINNHVK]
- MIC [1]: ≥ 80 µM
- MIC [2]: 20 µM (≈ 53.7 µg/mL)

SMILES: CC[C@H](C)[C@H](NC(=O)[C@H](C)NC(=O)[C@H](CS)NC(=O)[C@@H](NC(=O)[C@@H](NC(=O)[C@@H](NC(=O)[C@@H]1CCCN1C(=O)[C@@H](NC(=O)[C@@H](NC(=O)[C@@H](NC(=O)[C@H](C)NC(=O)[C@H](Cc1ccccc1)NC(=O)[C@H](CC(C)C)NC(=O)[C@H](CCCN=C(N)N)NC(=O)[C@H](CCCN=C(N)N)NC(=O)[C@H](CC(C)C)NC(=O)CNC(=O)[C@@H]1CCCN1C(=O)[C@@H](NC(=O)[C@@H](N)Cc1ccccc1)[C@@H](C)CC)[C@@H](C)O)C(C)C)C(C)C)[C@@H](C)O)C(C)C)C(C)C)C(=O)N[C@@H](CC(N)=O)C(=O)N[C@@H](CCCCN)C(=O)N[C@@H](CC(C)C)C(=O)N1CCC[C@H]1C(=O)N1CCC[C@H]1C(=O)NCC(=O)O [FIPGLRRLFATVVPTVVCAINKLPPG]
- MIC (Bacillus subtilis): 18 µM (≈ 50 µg/mL)
- MIC [2]: 4.5 µM (≈ 12.5 µg/mL)
- MIC [3]: 2.27 µM (≈ 6.3 µg/mL)
- MIC [4]: 4.5 µM (≈ 12.5 µg/mL)

SMILES: CC(C)[C@H](N)C(=O)N[C@@H](CCCCN)C(=O)N[C@@H](CCCN=C(N)N)C(=O)N[C@@H](Cc1c[nH]c2ccccc12)C(=O)N[C@@H](CCCCN)C(=O)N[C@@H](CCCCN)C(=O)N[C@@H](Cc1ccccc1)C(=O)N[C@@H](Cc1c[nH]c2ccccc12)C(=O)N[C@@H](CCCN=C(N)N)C(=O)N[C@@H](CCCCN)C(=O)N[C@@H](Cc1c[nH]c2ccccc12)C(=O)N[C@@H](CCCCN)C(=O)N[C@@H](CCCCN)C(=O)N[C@@H](Cc1c[nH]c2ccccc12)C(=O)N[C@@H](Cc1c[nH]c2ccccc12)C(N)=O [VKRWKKFWRKWKKWW]
- MIC (Bacillus subtilis): 2.06 µM (≈ 4.69 µg/mL)
- MIC [2]: 8.24 µM (≈ 18.7 µg/mL)
- MIC [3]: 1.03 µM (≈ 2.34 µg/mL)
- MIC [4]: 2.06 µM (≈ 4.69 µg/mL)

SMILES: CC[C@H](C)[C@H](NC(=O)CNC(=O)[C@H](CO)NC(=O)[C@H](CCCN=C(N)N)NC(=O)[C@@H](N)Cc1ccccc1)C(=O)N[C@@H](CC(C)C)C(=O)N[C@@H](CCCCN)C(=O)N[C@@H](CC(C)C)C(=O)N[C@@H](C)C(=O)N[C@@H](CO)C(=O)N[C@@H](CCCCN)C(=O)N[C@H](C(=O)NCC(=O)N[C@@H](CO)C(=O)N[C@H](C(=O)N[C@@H](CC(C)C)C(=O)N[C@H]1CSSC[C@@H](C(=O)O)NC(=O)[C@H](CC(N)=O)NC(=O)[C@H](CCCCN)NC(=O)[C@H](CC(C)C)NC(=O)[C@H](C(C)C)NC(=O)[C@H](C)NC1=O)C(C)C)[C@@H](C)CC [FRSGILKLASKIGSVLCAVLKNC]
- MIC (Bacillus subtilis): 20.7 µM (≈ 50 µg/mL)
- MIC [2]: 20.7 µM (≈ 50 µg/mL)
- MIC [3]: 10.3 µM (≈ 25 µg/mL)
- MIC [4]: 10.3 µM (≈ 25 µg/mL)

Second part, the compound after the results:

- MIC [1]: ≥ 160 µM
- MIC [2]: 20 µM (≈ 54.7 µg/mL)
SMILES: CC[C@H](C)[C@H](NC(=O)CNC(=O)[C@H](CCC(N)=O)NC(=O)[C@H](Cc1ccccc1)NC(=O)[C@H](Cc1ccccc1)NC(=O)[C@H](CCCCN)NC(=O)[C@H](CCCCN)NC(=O)[C@H](CC(C)C)NC(=O)[C@H](C)NC(=O)[C@H](CC(N)=O)NC(=O)[C@H](CC(C)C)NC(=O)CN)C(=O)N[C@@H](Cc1cnc[nH]1)C(=O)N[C@@H](CCC(=O)O)C(=O)N[C@@H](C)C(=O)N[C@H](C(=O)N[C@@H](CCCCN)C(=O)N[C@@H](CC(C)C)C(=O)N[C@H](C(=O)N[C@@H](CC(N)=O)C(=O)N[C@@H](CC(N)=O)C(=O)N[C@@H](Cc1cnc[nH]1)C(=O)N[C@H](C(=O)N[C@@H](CCC(N)=O)C(=O)O)C(C)C)[C@@H](C)CC)[C@@H](C)CC [GLNALKKFFQGIHEAIKLINNHVQ]

- MIC [1]: 12.5 µM (≈ 26.5 µg/mL)
- MIC [2]: 12.5 µM (≈ 26.5 µg/mL)
SMILES: CC[C@H](C)[C@H](NC(=O)[C@@H](NC(=O)[C@H](CO)NC(=O)[C@@H]1CCCN1C(=O)[C@@H](NC(=O)[C@H](CC(C)C)NC(=O)[C@H](CCCCN)NC(=O)[C@H](Cc1ccccc1)NC(=O)[C@H](CC(C)C)NC(=O)CNC(=O)CNC(=O)[C@H](CC(C)C)NC(=O)[C@@H](N)Cc1ccccc1)C(C)C)C(C)C)C(=O)N[C@H]1CSSC[C@@H](C(=O)O)NC(=O)[C@H](CCCCN)NC(=O)[C@H](CCCCN)NC(=O)[C@H]([C@@H](C)O)NC(=O)[C@H](C(C)C)NC(=O)[C@H](C)NC1=O [FLGGLFKLVPSVICAVTKKC]

- MIC [5]: ≥ 128 µM
- MIC (Escherichia coli UB1005): ≥ 128 µM
- MIC [2]: 128 µM (≈ 205 µg/mL)
- MIC [6]: > 128 µM
- MIC [7]: > 128 µM
- MIC [8]: > 128 µM
SMILES: CC(C)C[C@H](NC(=O)[C@H](CCCN=C(N)N)NC(=O)[C@H](CCCN=C(N)N)NC(=O)[C@H](Cc1ccccc1)NC(=O)[C@H](CCCN=C(N)N)NC(=O)CN)C(=O)N[C@@H](CCCN=C(N)N)C(=O)N[C@@H](CCCCN)C(=O)N[C@@H](CCCCN)C(=O)N[C@H](C(=O)N[C@@H](CCCN=C(N)N)C(=O)N[C@@H](CCCCN)C(N)=O)[C@@H](C)O [GRFRRLRKKTRK]

- MIC [1]: ≥ 60 µM
- MIC [2]: 3.5 µM (≈ 9.22 µg/mL)
- MIC [9]: ≥ 110 µM
SMILES: CC[C@H](C)[C@H](NC(=O)[C@H](CCSC)NC(=O)[C@@H](N)CO)C(=O)N[C@@H](CO)C(=O)N[C@H](C(=O)N[C@@H](CC(C)C)C(=O)N[C@@H](CCCCN)C(=O)N[C@@H](CC(N)=O)C(=O)N[C@@H](CC(C)C)C(=O)NCC(=O)N[C@@H](CCCCN)C(=O)N[C@H](C(=O)NCC(=O)N[C@@H](CC(C)C)C(=O)NCC(=O)N[C@@H](Cc1ccccc1)C(=O)N[C@H](C(=O)N[C@@H](C)C(=O)N[C@H]1CSSC[C@@H](C(=O)O)NC(=O)[C@H](CCC(N)=O)NC(=O)[C@H](CCCCN)NC(=O)[C@H](CC(N)=O)NC(=O)[C@H](C(C)C)NC(=O)[C@H](CCCCN)NC1=O)C(C)C)C(C)C)C(C)C [SMISVLKNLGKVGLGFVACKVNKQC]

- MIC [5]: 8 µM (≈ 18.4 µg/mL)
- MIC (Escherichia coli UB1005): 8 µM (≈ 18.4 µg/mL)
- MIC [8]: 4 µM (≈ 9.2 µg/mL)
- MIC [10]: 8 µM (≈ 18.4 µg/mL)
SMILES: CC[C@H](C)[C@H](NC(=O)[C@H](CCCCN)NC(=O)[C@H](CCCCN)NC(=O)[C@H](CC(C)C)NC(=O)[C@H](CCCN=C(N)N)NC(=O)[C@H](CCCCN)NC(=O)[C@H](CCCN=C(N)N)NC(=O)[C@@H](NC(=O)[C@H](Cc1c[nH]c2ccccc12)NC(=O)[C@H](Cc1c[nH]c2ccccc12)NC(=O)[C@H](CCCN=C(N)N)NC(=O)[C@H](CC(C)C)NC(=O)[C@H](CCCN=C(N)N)NC(=O)[C@H](CCCN=C(N)N)NC(=O)[C@H](Cc1ccccc1)NC(=O)[C@@H](N)CCCN=C(N)N)[C@@H](C)O)C(N)=O [RFRRLRWWTRKRLKKI]

- MIC [11]: 10 µM (≈ 22.6 µg/mL)
- MIC [12]: 15 µM (≈ 33.9 µg/mL)
- MIC [13]: 10 µM (≈ 22.6 µg/mL)
- MIC [14]: 7 µM and 5 µM
SMILES: CC[C@H](C)[C@H](NC(=O)[C@H](Cc1cnc[nH]1)NC(=O)[C@H](C)NC(=O)[C@H](CCSC)NC(=O)[C@H](CC(N)=O)NC(=O)[C@H](CCCCN)NC(=O)[C@H](CCCCN)NC(=O)[C@@H](NC(=O)[C@@H](NC(=O)[C@H](CCCCN)NC(=O)[C@H](C)NC(=O)[C@H](Cc1ccccc1)NC(=O)[C@H](CC(C)C)NC(=O)[C@H](CCCCN)NC(=O)[C@@H]1CCCN1C(=O)[C@H](CC(C)C)NC(=O)[C@H](Cc1ccccc1)NC(=O)[C@@H](N)CS)[C@@H](C)CC)[C@@H](C)O)C(=O)N[C@@H](CCCN=C(N)N)C(=O)O [CFLPKLFAKITKKNMAHIR]

- MIC [5]: 8 µM (≈ 14.5 µg/mL)
- MIC (Escherichia coli UB1005): 4 µM (≈ 7.25 µg/mL)
- MIC [2]: 4 µM (≈ 7.25 µg/mL)
- MIC [6]: 8 µM (≈ 14.5 µg/mL)
- MIC [7]: 4 µM (≈ 7.25 µg/mL)
- MIC [8]: 8 µM (≈ 14.5 µg/mL)
SMILES: CC(C)C[C@H](NC(=O)[C@H](CCCN=C(N)N)NC(=O)[C@H](Cc1c[nH]c2ccccc12)NC(=O)[C@H](CCCN=C(N)N)NC(=O)[C@@H](NC(=O)[C@H](Cc1c[nH]c2ccccc12)NC(=O)[C@H](Cc1c[nH]c2ccccc12)NC(=O)[C@H](CCCN=C(N)N)NC(=O)[C@H](CC(C)C)NC(=O)[C@H](CCCN=C(N)N)NC(=O)[C@@H](N)CCCN=C(N)N)[C@@H](C)O)C(=O)N[C@@H](CCCCN)C(N)=O [RRLRWWTRWRLK]
